From patent US10801035B2, “Plants having increased tolerance to herbicides” (BASF SE, priority 2011, dated 2020)

Assays:
[1] = biological target: T1, Hordeum HPPD variant L353M, P321R, V212I (Hordeum vulgare, UniProt O48604, L353M/P321R/V212I); test: HPPD activity assay, Hordeum HPPD mutant L353M, P321R, V212I; type: biochemical; details: normalized on wildtype
T1 construct: His6; made in house; host or cells: E. coli BL21 (DE3)
Experimental: (§1) HPPD produces homogentisic acid and CO2 from 4-hydroxyphenylpyruvate (4-HPP) and O2. The activity assay for HPPD is based on the analysis of homogentisic acid by reversed phase HPLC.
(§2) The assay mixture can contain 150 mM potassium phosphate buffer pH 7.0, 50 mM L-ascorbic acid, 1 μM FeSO4 and 7 μg of purified enzyme in a total volume of 1 ml. Inhibitors are dissolved in DMSO (dimethylsulfoxide) to a concentration of 20 mM or 0.5 mM, respectively. From this stock solution serial five-fold dilutions are prepared in DMSO, which are used in the assay. The respective inhibitor solution accounts for 1% of the assay volume. Thus, final inhibitor concentrations range from 200 μM to 2.5 nM or from 5 μM to 63 pM, respectively. After a preincubation of 30 min the reaction is started by adding 4-HPP to a final concentration of 0.1 mM. […]
(§3) Inhibitors are dissolved in DMSO (dimethylsulfoxide) to a concentration of 0.5 mM. […] IC50 values are calculated using non-linear regression.
(§4) Purified, mutant HPPD enzymes are obtained by the methods described above. […] Apparent michaelis constants (Km) and maximal reaction velocities (Vmax) are calculated by non-linear regression with the software GraphPad Prism 5 (GraphPad Software, La Jolla, USA) using a substrate inhibition model. […] Weighted means (by standard error) of Km and […] values are calculated from at least three independent experiments. […]

[2] = test system: transgenic Arabidopsis plants overexpressing Barley HPPD (Seq ID: 2); test: Arabidopsis growth inhibition in 48-well plates, line overexpressing Barley HPPD; type: in vivo, Arabidopsis thaliana; details: Barley HPPD (Seq ID: 2) overexpression line; plant growth IC50 of transgenic divided by wildtype
Experimental: Depending on the species, the plants are kept at 10-25° C. or 20-35° C. The test period extends over 3 weeks. During this time, the plants are tended and their response to the individual treatments is evaluated. Herbicide injury evaluations are taken at 2 and 3 weeks after treatment. Plant injury is rated on a scale of 0 to 9, 0 being no injury and 9 being complete death. Tolerance to coumarone-derivative herbicides can also be assessed in Arabidopsis. In this case transgenic Arabidopsis thaliana plants are assayed for improved tolerance to coumarone-derivative herbicides in 48-well plates. Seeds are surface sterilized by stirring for 5 min in ethanol+water (70+30 by volume), rinsing one time with ethanol+water (70+30 by volume) and two times with a sterile, deionized water. The seeds are resuspended in 0.1% agar dissolved in water (w/v). Four to five seeds per well are plated on solid nutrient medium consisting of half-strength Murashige Skoog nutrient solution, pH 5.8 (Murashige and Skoog (1962) Physiologia Plantarum 15: 473-497). […] Seven to ten days after seeding growth inhibition is evaluated by comparison to wild type plants. Tolerance factor is calculated by dividing the plant growth IC50 value of transgenic plants containing a HPPD and/or HST sequence by that of wildtype plants. […]

[3] = biological target: T2, Hordeum HPPD variant G407C (Hordeum vulgare, UniProt O48604, A164G/G407C/R146V/R147D/R148G); test: HPPD activity assay, Hordeum HPPD mutant G407C; type: biochemical; details: normalized on wildtype
T2 construct: His6; made in house; host or cells: E. coli BL21 (DE3)
Experimental: as §1, §2, §3, §4

T2 sequence (O48604 whole entry R146V/R147D/R148G/A164G/G407C): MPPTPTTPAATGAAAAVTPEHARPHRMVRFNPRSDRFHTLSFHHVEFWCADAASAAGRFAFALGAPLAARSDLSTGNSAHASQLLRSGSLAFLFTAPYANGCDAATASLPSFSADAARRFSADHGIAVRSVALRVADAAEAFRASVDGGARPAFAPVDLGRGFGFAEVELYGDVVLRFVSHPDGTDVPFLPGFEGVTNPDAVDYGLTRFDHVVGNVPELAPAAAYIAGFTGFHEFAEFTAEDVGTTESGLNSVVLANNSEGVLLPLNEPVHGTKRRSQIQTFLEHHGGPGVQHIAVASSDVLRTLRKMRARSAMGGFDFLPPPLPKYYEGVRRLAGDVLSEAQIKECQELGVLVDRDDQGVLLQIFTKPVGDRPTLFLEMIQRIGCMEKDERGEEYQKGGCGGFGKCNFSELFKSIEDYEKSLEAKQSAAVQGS
T1 sequence (O48604 whole entry R146V/R147D/R148G/A164G/V212I/P321R/L353M): as the sequence (O48604 whole entry R146V/R147D/R148G/A164G/G407C) above, with V212I, P321R, L353M, C407G counted along it

Structure (SMILES): CC1=NOC(c2c(Cl)ccc(C3=C(O)c4ncccc4N(CC(F)F)S3(=O)=O)c2Cl)C1 (stereo not drawn) [Inhibitor 1, 3-[2,4-dichloro-3-(3-methyl-4,5-dihydroisoxazol-5-yl)phenyl]-1-(2,2-difluoroethyl)-2,2-dioxo-pyrido[3,2-c]thiazin-4-ol]
- Normalized tolerance index (TI) [1]: 2.3
- Tolerance factor [2]: 3
- Normalized tolerance index (TI) [3]: 1.6

Structure (SMILES): O=S1(=O)C(c2c(Cl)cc(Cl)nc2Cl)=C(O)c2ncccc2N1CC(F)F [Inhibitor 2, 1-(2,2-difluoroethyl)-2,2-dioxo-3-(2,4,6-trichloro-3-pyridyl)pyrido[3,2-c]thiazin-4-ol]
- Normalized tolerance index (TI) [1]: 3
- Tolerance factor [2]: 4
- Normalized tolerance index (TI) [3]: 3.2
